Measurements reported in patent US20230137849A1, “USE OF A COMPOUND OF THE DIURETICS CLASS FOR TREATING CANCER” (AZELEAD, priority 2017, published 2023).

Experiments:
MDA-MB-231 cells = test: Migration test on MDA-MB-231 cells (scratch test); type: cell-based, human; conditions: 10, 50 and 100 μM, 18 h migration, FIG. 10
Method: Cell migration assays on the MDA-MB-231 cell line are performed in vitro in 96-well plates. The MDA-MB-231 cells were seeded at the density of 50000 cells per well, to form a monolayer. The cells are maintained in a DMEM culture medium supplemented with 0.2% fetal calf serum and incubated at 37° C., 5% CO2 and 1% O2 for 24 hours. The cell monolayer is injured with a pipette tip. The cells are then rinsed with PB S to remove the cells in suspension and the different treatments are added, as well as DMEM supplemented with 10% FCS. The cells are incubated for 18 hours at 37° C., 5% CO2 and 20% O2.
A first series of images of each well (center of the well) was carried out at the beginning of the experiment (t=0) and after 18 hours of migration (t=18) using a 4× objective Nikon microscope. The images were analyzed using ImageJ software (National Institutes of Health, USA).
The treatments were carried out in triplicate and the manipulation was carried out 3 times. […]
A first series of images of each well (center of the well) is performed at the beginning of the experiment (t=0) and after 18 h of migration (t=18) using a Nikon microscope −4× lens. The images were analyzed using Image J software (National Institute of Health, USA)

VIMENTIN = test: q-RT-PCR expression of EMT markers in MDA-MB-231 cells under hypoxia: VIMENTIN; type: cell-based, human; conditions: althiazide 100 μM, hypoxic conditions (1% O2), vs control, FIG. 11
Method: (§1) The cell cultures are carried out on human breast cancer epithelial cell lines MDA-MB-231 (HTB-26™), resulting from metastases present in a pleural effusion of a patient with a mammary adenocarcinoma. This line is used as a triple negative cancer cell model (no expression of ER-type nuclear estrogen receptors, nuclear progesterone receptors or overexpression of the oncogene encoding HER2 protein (Human Epidermal Growth factor Receptor-2).
(§2) The cells were cultured in DMEM medium (Eurobio, Fance) supplemented with 10% fetal calf serum (FCS) (Eurobio, Fance) at 37° C., 5% CO2. The medium was changed every 3 days.
(§3) The cells were placed in a controlled atmosphere at 1% oxygen 24 hours before the application of the different treatments.
(§4) The expression of the mRNAs is measured by the q-RT-PCR method. The cells were seeded at the density of 500,000 cells/well in 6-well plates. After 24 hours at 37° C., 5% CO2 and 1% O2, the medium was renewed and added the various treatments. RNA was isolated using TRI Reagent® (sigma), assayed and retro-transcribed into complementary DNA using the PrimeScript RT Reagent Kit (Takara). The expression levels of the mRNA of the genes of interest were determined by quantitative PCR (LightCycler® 480 Instrument II) with the primers listed in Table 2: […]
(§5) The results are calculated using the Delta Delta Ct (Δ ΔCt) method.

ZEB1 = test: q-RT-PCR expression of EMT markers in MDA-MB-231 cells under hypoxia: ZEB1; type: cell-based, human; conditions: althiazide 100 μM, hypoxic conditions (1% O2), vs control, FIG. 11
Method: as §1, §2, §3, §4, §5

E-CADHERIN = test: q-RT-PCR expression of EMT markers in MDA-MB-231 cells under hypoxia: E-CADHERIN; type: cell-based, human; conditions: althiazide 100 μM, hypoxic conditions (1% O2), vs control, FIG. 11
Method: as §1, §2, §3, §4, §5

4T1 cells = type: cell-based, mouse; conditions: highest dose 100 μM, FIG. 8
Method: The cytotoxicity tests are carried out in cell culture in 96-well plates, on the 4T1 cell line. The cells are maintained in a DMEM culture medium supplemented with 10% fetal calf serum (control condition) or placed in the presence of an MTT solution (3-(4,5-dimethylthiazol-2-yl)-2,5-diphenyl tetrazolium bromide) at 1 mg/ml in DMEM medium supplemented with 10% fetal calf serum (100 μl per well). The cells are incubated at 37° C. and 5% CO2 for 4 hours. The reaction is stopped by the addition of 100 μl of a solution containing 10% of SDS and 0.01 M of HCl. The cells are placed in an incubator at 37° C. and 5% CO2 for 2 hours. The absorbance is measured between 570 and 590 nm. The negative control is performed on a well without cells, containing 200 μl of a 1 mg/ml solution of MTT diluted in DMEM culture medium supplemented with 10% fetal calf serum. The average of the measurements obtained is compared with the control wells: (average value of the compounds treated/average value of the controls)*100=% of the average value.
The 4T1 cells are derived from tumors of the mammary gland in mice.
In order to study the cytotoxic effects of althiazide in vitro, we analyze the cell death induced by treatment with althiazide by tetrazolium salt labeling MTT (3-(4,5-dimethylthiazol-2-yl)-2,5-diphenyltetrazolium bromide) on 4T1 cells. The amount of living cells in the well is assayed by spectrometry. The results are compared with those obtained after treatment with the control solution (FIG. 8). In this test, we observe a very low mortality of cells after treatment with althiazide (80% of living cells at the highest dose 100 μM). Cells treated with dasatinib have a much higher mortality rate, at much lower doses (80% live cells at the lowest 10 nM dose and 20% live cells at 100 μM).

C=CCSCC1Nc2cc(Cl)c(S(N)(=O)=O)cc2S(=O)(=O)N1 (racemic) [althiazide]
decrease of the migration (MDA-MB-231 cells): ~50% | change in expression of VIMENTIN (VIMENTIN): −22% | change in expression of ZEB1 (ZEB1): −14% | increase in E-CADHERIN expression (E-CADHERIN): 73% | living cells (MTT) (4T1 cells): 80%
